The assay has as its target T1, human OX2R (Homo sapiens, UniProt O43614).
T1 construct: expressed in transfected cells; host or cells: CHO (Chinese hamster ovary) cells, grown under G418 selection
T1 sequence (O43614 1-444): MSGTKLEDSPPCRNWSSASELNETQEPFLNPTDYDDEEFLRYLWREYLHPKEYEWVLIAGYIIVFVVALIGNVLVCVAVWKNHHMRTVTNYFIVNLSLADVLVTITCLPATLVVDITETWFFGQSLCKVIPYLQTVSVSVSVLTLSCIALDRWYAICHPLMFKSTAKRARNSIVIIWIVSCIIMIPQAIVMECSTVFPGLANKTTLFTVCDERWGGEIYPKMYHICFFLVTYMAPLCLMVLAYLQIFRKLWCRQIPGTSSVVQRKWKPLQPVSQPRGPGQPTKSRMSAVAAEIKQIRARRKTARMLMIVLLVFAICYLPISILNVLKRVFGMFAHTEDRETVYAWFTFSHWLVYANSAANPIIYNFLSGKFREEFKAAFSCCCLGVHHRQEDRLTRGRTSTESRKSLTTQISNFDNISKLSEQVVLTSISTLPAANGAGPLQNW
As to the kind of experiment: IPOne (IP-1) orexin receptor agonist assay in CHO cells expressing human OX2R. Type of assay: cell-based. Particulars: IPOne assay, CHO cells expressing human OX2R, 2 hours incubation; read-out: hoX2R_IP IC50. The text has this: The utility of the compounds in accordance with the present invention as orexin receptor OX1R and/or OX2R agonists may be readily determined without undue experimentation by methodology well known in the art. Both the OX1R and/or OX2R G-coupled protein receptors (GPCRs) couple through the Gaq signaling pathway, which ultimately promotes calcium mobilization via inositol triphosphate (IP3) production. The half-life of IP-3 is relatively short, being rapidly metabolized to inositol monophosphate (IP-1), which can be readily detected using a commercially available assay kit (IP-One; Cisbio; cat #621PAPEC) coupled with a cell line expressing the target receptor(s) of interest. The utility of the compounds in accordance with the present invention as orexin receptor OX1R and/or OX2R agonists may be determined utilizing this assay.
In a typical experiment, the OX1 and OX2 receptor agonist activity is determined in accordance with the following general experimental method. Chinese hamster ovary (CHO) cells expressing human OX1R and/or the human OX2R were grown in Iscove's modified DMEM containing glutaMAX™, 1% G418, 100 U/mL penicillin, 100 μg/mL streptomycin and 10% heat-inactivated qualified fetal bovine serum (FBS). The OX2R cells were seeded at 10,000 cells/well/50 μL and the OX1R cells were seeded at 20,000 cells/well/50 μL into 384-well white tissue culture plates (Greiner; cat #781080). All cell/media reagents were from GIBCO-Invitrogen Corp. The seeded cell plate(s) were incubated at 37° C. with 5% CO2 and 85% humidity for 20-24 hours. On the day of the assay, assay-ready compound plates were prepared using an acoustic liquid handler (ECHO; Labcyte), which dispensed sufficient volume of test compound stock (10 mM in DMSO) or 100% DMSO to prepare 10 point, ½-log dilutions in a final volume of 202.5 nL/well in all test wells of a 384-well diamond plate (Labcyte). Following completion of assay-ready plates, importantly, the next three steps were performed with minimal delay: 1) 20 μl of 1×stimulation buffer was added to the compound plate using a Multidrop Combi (small cassette, Thermo Fisher Scientific cat #24073290); 2) culture medium was removed from the cell plate using the Bluewasher plate washer (gentle spin; BlueCatBio); 3) 14 μl of compound/stimulation buffer mixture was added to the cell plate using a Bravo liquid handler (Agilent) prior to incubating cell plates at 37° C. with 5% CO2 and 85% humidity for 1 or 2 hours (OX1R and OX2R, respectively). During this incubation, IP-one detection reagents were prepared (38:1:1 lysis buffer:D2:AB-cryptate reagents). Six μL of mixed detection reagents were added to the cell plate using a Multidrop Combi (small cassette, Thermo Fisher Scientific cat #24073290) and incubated 60 minutes at room temperature in the dark. Fluorescence signal was detected using an Envision plate reader (Perkin Elmer) [LANCE/DELFIA Dual Enh (Em: APC 665; Ex: Cy5 620)].
For each compound, data were fit to a four parameter logistic fit (ActivityBase software) and the EC50 was reported as the inflection point of the resulting curve. Percent effect for each test compound was determined as the percentage of sample raw value/mean max effect, where the mean max effect was derived from the mean raw value of 32 control wells per assay plate (using Orexin A (cat #003-30) at 1 μM for human OX1R and a reference compound at 1 uM with 100% activity previously established by comparison to Orexin A for human OX2R). The intrinsic orexin receptor agonist activity of a compound which may be used in the present invention may be determined by these assays.

The structures appear in SMILES notation.

What is called IC50 is the concentration that gives 50% inhibition. With `COC(=O)N1[C@H](C)C[C@H](NS(=O)(=O)N(C)C)[C@@H]1COC1CCC2(c3cnccn3)CC2C1` (stereo partly drawn) [Example 13, methyl (2R,3S,5R)-3-((N,N-dimethylsulfamoyl)amino)-5-methyl-2-(((6-(pyrazin-2-yl)bicyclo[4.1.0]heptan-3-yl)oxy)methyl)pyrrolidine-1-carboxylate], the half-maximal inhibitory concentration (IC50) was 461 nM.
Take `COC(=O)N1[C@H](C)C[C@H](NS(=O)(=O)C(F)(F)F)[C@@H]1CO[C@H]1CC[C@@]2(c3ncc(F)cn3)C[C@H]2C1` [Example 31, methyl (2R,3S,5R)-2-((((1S,3S,6R)-6-(5-fluoropyrimidin-2-yl)bicyclo[4.1.0]heptan-3-yl)oxy)methyl)-5-methyl-3-((trifluoromethyl)sulfonamido)pyrrolidine-1-carboxylate]: the IC50 amounted to 3 nM.
`CCCS(=O)(=O)N[C@H]1C[C@@H](C)N(C(=O)OC)[C@H]1CO[C@H]1CC[C@@]2(c3ncc(F)cn3)C[C@H]2C1` [Example 33, methyl (2R,3S,5R)-2-((((1S,3S,6R)-6-(5-fluoropyrimidin-2-yl)bicyclo[4.1.0]heptan-3-yl)oxy)methyl)-5-methyl-3-(propylsulfonamido)pyrrolidine-1-carboxylate]: the IC50 was determined as 5.4 nM.
The figure for `COC(=O)N1[C@H](C)C[C@H](NS(=O)(=O)Cc2ccccc2)[C@@H]1CO[C@H]1CC[C@@]2(c3ncc(F)cn3)C[C@H]2C1` [Example 34, methyl (2R,3S,5R)-2-((((1S,3S,6R)-6-(5-fluoropyrimidin-2-yl)bicyclo[4.1.0]heptan-3-yl)oxy)methyl)-5-methyl-3-((phenylmethyl)sulfonamido)pyrrolidine-1-carboxylate] is 34.4 nM.
On to `COC(=O)N1[C@H](C)C[C@H](NS(=O)(=O)CC(C)C)[C@@H]1CO[C@H]1CC[C@@]2(c3ncc(F)cn3)C[C@H]2C1` [Example 35, methyl (2R,3S,5R)-2-((((1S,3S,6R)-6-(5-fluoropyrimidin-2-yl)bicyclo[4.1.0]heptan-3-yl)oxy)methyl)-5-methyl-3-((2-methylpropyl)sulfonamido)pyrrolidine-1-carboxylate], for which the IC50 worked out at 46.5 nM.
Regarding `CCS(=O)(=O)N[C@H]1C[C@@H](C)N(C(=O)OC)[C@H]1CO[C@H]1CC[C@@]2(c3ncc(F)cn3)C[C@H]2C1` [Example 36, methyl (2R,3S,5R)-3-(ethylsulfonamido)-2-((((1S,3S,6R)-6-(5-fluoropyrimidin-2-yl)bicyclo[4.1.0]heptan-3-yl)oxy)methyl)-5-methylpyrrolidine-1-carboxylate], the IC50 amounted to 0.93 nM.
In the case of `COC(=O)N1[C@H](C)C[C@H](NS(=O)(=O)CCl)[C@@H]1CO[C@H]1CC[C@@]2(c3ncc(F)cn3)C[C@H]2C1` [Example 37, methyl (2R,3S,5R)-3-((chloromethyl)sulfonamido)-2-((((1S,3S,6R)-6-(5-fluoropyrimidin-2-yl)bicyclo[4.1.0]heptan-3-yl)oxy)methyl)-5-methylpyrrolidine-1-carboxylate], the IC50 was found to be 2.1 nM.
Under `COC(=O)N1[C@H](C)C[C@H](NS(=O)(=O)C(C)C)[C@@H]1CO[C@H]1CC[C@@]2(c3ncc(F)cn3)C[C@H]2C1` [Example 38, methyl (2R,3S,5R)-2-((((1S,3S,6R)-6-(5-fluoropyrimidin-2-yl)bicyclo[4.1.0]heptan-3-yl)oxy)methyl)-5-methyl-3-((1-methylethyl)sulfonamido)pyrrolidine-1-carboxylate] stands 0.9 nM; under `COC(=O)N1[C@H](C)C[C@H](NS(=O)(=O)N2CCC2)[C@@H]1CO[C@H]1CC[C@@]2(c3ncc(F)cn3)C[C@H]2C1` [Example 39, methyl (2R,3S,5R)-3-(azetidine-1-sulfonamido)-2-((((1S,3S,6R)-6-(5-fluoropyrimidin-2-yl)bicyclo[4.1.0]heptan-3-yl)oxy)methyl)-5-methylpyrrolidine-1-carboxylate], 2 nM.

For the origin of these results see patent publication US20230365533A1, “BICYCLOHEPTANE PYRROLIDINE OREXIN RECEPTOR AGONISTS” (MERCK SHARP & DOHME CORP., priority 2021, published 2023).
